Here are results for four compounds from patent publication US20060063755A1, “Loxapine analogs and methods of use thereof” (priority 2004, published 2006).

The Ki is a measure of affinity in units of concentration, obtained from inhibition or displacement.

One series has as its system male Wistar rats. Nature of the series: Sleep-wakefulness monitoring (SCORE-2000, EEG/EMG) after oral dosing at CT-18. The class given is in vivo, rat. The procedure:
Food and water were available ad libitum.
Treatments were administered orally as a bolus.
A parallel group study design was employed.
The results of NREM and LUSB parameters were measured for the loxapine derivatives such as Compounds 1, 2, 3, 5, 6, 7, 8, 9, 10, 12, 14, 17, 19, 20, 21, 23, 30, 31, 32, 39, 40, 42, 46, 50, 51, 52, 54, 56, and 58 and other compounds listed in Table 1.

The target in another series is hERG channel (Homo sapiens, UniProt Q12809). The series is described as follows: hERG channel current block, whole cell recording in HEK293 cells. Particulars: HEK293 cells expressing hERG. The class given is cell-based. The procedure:
Other in vitro selection criteria for loxapine analogs of the invention includes hERG binding.
(Brown and Rampe (2000)).
In one embodiment of the HERG assay, the positive control (i.e., reference compound) is terfenadine (Sigma, St. Louis Mo.), which has been shown, at a concentration of 60 nM, to block HERG current by approximately 75%. Test compounds are delivered in HEPES-buffered physiological saline (HB-PS)+0.1% dimethyl sulfoxide (DMSO).
Clin. Exp. Allergy 29 Suppl 3, 174-181.
If the final DMSO concentration must be greater than 0.3%, to reach a specified test article concentration, a separate vehicle control test with an n>2 was performed at the highest final DMSO concentration.
Each cell acted as its own control. […] One concentration of the positive control article (60 nM terfenadine) was applied to two cells (n≧2).
(In general: hERG is a cardiac potassium channel; its block is linked to QT prolongation.)

For series [1], the target named is T1, H1 histamine receptor (Bos taurus, UniProt P30546).
T1 construct: the receptors were obtained from bovine cerebellar membrane tissue; from tissue; host or cells: bovine cerebellar membranes
T1 sequence (P30546 whole entry): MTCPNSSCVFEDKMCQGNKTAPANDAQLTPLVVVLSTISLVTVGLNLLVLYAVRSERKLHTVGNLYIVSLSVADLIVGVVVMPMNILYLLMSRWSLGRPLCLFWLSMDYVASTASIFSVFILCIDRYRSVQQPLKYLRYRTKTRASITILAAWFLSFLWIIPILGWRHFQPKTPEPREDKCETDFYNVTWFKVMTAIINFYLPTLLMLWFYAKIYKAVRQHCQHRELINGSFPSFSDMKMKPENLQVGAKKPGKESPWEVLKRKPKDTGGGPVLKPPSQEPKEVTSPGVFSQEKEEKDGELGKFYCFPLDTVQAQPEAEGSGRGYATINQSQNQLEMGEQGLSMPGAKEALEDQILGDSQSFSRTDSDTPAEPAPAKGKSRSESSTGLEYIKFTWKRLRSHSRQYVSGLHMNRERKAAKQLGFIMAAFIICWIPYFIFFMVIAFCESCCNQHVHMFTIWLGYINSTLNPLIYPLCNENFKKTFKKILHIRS
Nature of the series: H1 competitive binding assay, [3H]pyrilamine, bovine cerebellar membranes. The conditions noted are these: bovine cerebellar membrane.

The target of series [2] is H1 histamine receptor (Rattus norvegicus, UniProt P31390). The series is described as follows: H1 binding, rat (footnote of Table 8). The procedure:
(§1) Binding assays were performed using the disclosed sleep-inducing agents and derivatives selected from those listed in Table 1 in competitive binding assays with known standards for the H1 histamine receptor, and the M1, M2, and M3 muscarinic receptors, alpha 1 and alpha 2 receptors, and D1 and D2 receptors.

For series [3], the target named is H1 histamine receptor (Homo sapiens, UniProt P35367). The series is described as follows: H1 binding, human (footnote of Table 8). The procedure:
as §1

The target of series [4] is T2, M1 muscarinic receptor (Homo sapiens, UniProt P11229).
T2 construct: purchased PerkinElmer, Inc., Wellesley, Mass; host or cells: CHO cells
T2 sequence (P11229 1-460): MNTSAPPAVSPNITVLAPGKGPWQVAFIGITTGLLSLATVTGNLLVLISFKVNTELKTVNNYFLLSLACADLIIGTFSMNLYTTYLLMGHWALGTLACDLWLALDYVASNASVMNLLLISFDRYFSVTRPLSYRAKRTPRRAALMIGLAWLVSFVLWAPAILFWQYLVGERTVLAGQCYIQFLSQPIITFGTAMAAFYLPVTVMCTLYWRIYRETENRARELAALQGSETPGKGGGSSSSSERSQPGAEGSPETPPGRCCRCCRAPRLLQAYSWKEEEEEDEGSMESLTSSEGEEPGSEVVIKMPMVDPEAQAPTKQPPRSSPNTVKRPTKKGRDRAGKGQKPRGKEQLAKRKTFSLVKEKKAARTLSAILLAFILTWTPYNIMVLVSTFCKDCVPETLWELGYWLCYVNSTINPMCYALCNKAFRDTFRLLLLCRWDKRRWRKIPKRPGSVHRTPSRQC
Nature of the series: M1 binding assay, [3H]-scopolamine N-methyl chloride, CHO cells. Particulars: human recombinant.

The next series concerns the target T3, M2 muscarinic receptor (Homo sapiens, UniProt P08172).
T3 construct: purchased PerkinElmer, Inc., Wellesley, Mass; host or cells: CHO cells
T3 sequence (P08172 1-466): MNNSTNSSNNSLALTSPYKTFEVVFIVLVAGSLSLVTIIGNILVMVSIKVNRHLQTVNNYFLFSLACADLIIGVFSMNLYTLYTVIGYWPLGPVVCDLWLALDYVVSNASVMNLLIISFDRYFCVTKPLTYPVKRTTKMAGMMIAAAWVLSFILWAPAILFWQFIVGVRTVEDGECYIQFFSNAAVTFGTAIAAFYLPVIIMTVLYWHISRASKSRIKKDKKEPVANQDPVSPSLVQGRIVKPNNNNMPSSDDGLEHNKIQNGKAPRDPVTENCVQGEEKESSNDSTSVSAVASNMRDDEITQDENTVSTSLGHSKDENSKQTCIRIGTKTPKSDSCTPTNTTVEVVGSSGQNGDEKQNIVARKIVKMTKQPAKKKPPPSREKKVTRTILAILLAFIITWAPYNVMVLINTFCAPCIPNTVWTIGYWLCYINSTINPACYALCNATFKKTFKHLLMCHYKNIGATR
The series is described as follows: M2 binding assay, [3H]-scopolamine N-methyl chloride, CHO cells. The conditions noted are these: human recombinant.

For a further series, the target named is T4, M3 muscarinic receptor (Homo sapiens, UniProt P20309).
T4 construct: purchased PerkinElmer, Inc., Wellesley, Mass; host or cells: CHO cells
T4 sequence (P20309 whole entry): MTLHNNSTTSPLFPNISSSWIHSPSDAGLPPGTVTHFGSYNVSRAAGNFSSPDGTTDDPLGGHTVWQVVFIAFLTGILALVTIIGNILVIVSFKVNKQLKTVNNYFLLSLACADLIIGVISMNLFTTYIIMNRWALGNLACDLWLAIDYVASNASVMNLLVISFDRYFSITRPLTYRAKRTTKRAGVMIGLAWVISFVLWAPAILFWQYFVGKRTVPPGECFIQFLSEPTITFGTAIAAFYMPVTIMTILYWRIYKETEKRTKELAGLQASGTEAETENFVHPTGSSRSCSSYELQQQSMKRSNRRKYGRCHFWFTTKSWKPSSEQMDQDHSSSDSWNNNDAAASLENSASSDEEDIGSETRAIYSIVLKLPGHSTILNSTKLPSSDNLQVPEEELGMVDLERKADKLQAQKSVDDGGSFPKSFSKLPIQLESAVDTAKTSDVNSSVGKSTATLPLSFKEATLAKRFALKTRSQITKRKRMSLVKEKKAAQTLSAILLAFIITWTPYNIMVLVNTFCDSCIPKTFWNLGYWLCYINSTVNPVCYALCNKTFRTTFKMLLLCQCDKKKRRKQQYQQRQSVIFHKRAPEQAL
The series is described as follows: M3 binding assay, [3H]-scopolamine N-methyl chloride, CHO cells. Particulars: human recombinant.

Another series concerns the target alpha 1 receptors. Nature of the series: Alpha 1 receptor binding assay. Particulars: read-out: Ki Alpha1. The procedure:
as §1

A further series deals with alpha 2 receptors. The series is described as follows: Alpha 2 receptor binding assay. The conditions noted are these: read-out: Ki Alpha2. The procedure: as §1
Series [5] addresses Dopamine, D1 (Homo sapiens, UniProt P21728). Nature of the series: Dopamine D1 (human recombinant) binding assay. The procedure: as §1
Dopamine, D1 (human recombinant) binding assay was performed according to published procedures. See, e.g., Jarvie, et al. J. Recept Res., 13(1-4): 573-90 (1993); and Billard, et al. Life Sciences, 35(18): 1885-93 (1984), with modifications

Series [6] has as its target Dopamine, D1 (Rattus norvegicus, UniProt P18901). The series is described as follows: Dopamine D1 binding, rat. The procedure:
as §1

In series [7] the target is D2 receptors (Homo sapiens, UniProt P14416). Nature of the series: Dopamine D2 binding assay (human). The procedure: Binding assays were performed using the disclosed sleep-inducing agents and derivatives selected from those listed in Table 1 in competitive binding assays with known standards for the H1 histamine receptor, and the M1, M2, and M3 muscarinic receptors, alpha 1 and alpha 2 receptors, and D1 and D2 receptors. […]
D2 receptors (Homo sapiens, UniProt P14416), sequence (P14416 whole entry): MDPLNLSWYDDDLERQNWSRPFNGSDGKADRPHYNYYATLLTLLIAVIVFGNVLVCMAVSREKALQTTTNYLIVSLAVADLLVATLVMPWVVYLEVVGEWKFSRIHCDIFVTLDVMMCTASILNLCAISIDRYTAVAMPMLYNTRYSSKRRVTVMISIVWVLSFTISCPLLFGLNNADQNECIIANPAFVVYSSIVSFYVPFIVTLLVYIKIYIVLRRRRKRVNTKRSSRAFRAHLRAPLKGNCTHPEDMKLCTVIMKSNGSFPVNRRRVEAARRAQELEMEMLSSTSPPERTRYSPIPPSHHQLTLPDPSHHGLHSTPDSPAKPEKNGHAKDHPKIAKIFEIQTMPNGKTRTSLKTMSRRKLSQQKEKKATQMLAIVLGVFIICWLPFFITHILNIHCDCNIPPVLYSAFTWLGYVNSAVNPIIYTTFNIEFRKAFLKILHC

Series [8] addresses D2 receptors (Rattus norvegicus, UniProt P61169). The series is described as follows: Dopamine D2 binding, rat. The procedure: as §1
For series [9], the target named is T2, M1 muscarinic receptor. The conditions noted are these: reference compounds; read-out: Ki of reference compounds, M1 binding assay; cited from earlier work.

SMILES strings stand for the structures. Like-named read-outs stand apart in the source and are kept apart here.

hERG channel, sequence (Q12809 whole entry): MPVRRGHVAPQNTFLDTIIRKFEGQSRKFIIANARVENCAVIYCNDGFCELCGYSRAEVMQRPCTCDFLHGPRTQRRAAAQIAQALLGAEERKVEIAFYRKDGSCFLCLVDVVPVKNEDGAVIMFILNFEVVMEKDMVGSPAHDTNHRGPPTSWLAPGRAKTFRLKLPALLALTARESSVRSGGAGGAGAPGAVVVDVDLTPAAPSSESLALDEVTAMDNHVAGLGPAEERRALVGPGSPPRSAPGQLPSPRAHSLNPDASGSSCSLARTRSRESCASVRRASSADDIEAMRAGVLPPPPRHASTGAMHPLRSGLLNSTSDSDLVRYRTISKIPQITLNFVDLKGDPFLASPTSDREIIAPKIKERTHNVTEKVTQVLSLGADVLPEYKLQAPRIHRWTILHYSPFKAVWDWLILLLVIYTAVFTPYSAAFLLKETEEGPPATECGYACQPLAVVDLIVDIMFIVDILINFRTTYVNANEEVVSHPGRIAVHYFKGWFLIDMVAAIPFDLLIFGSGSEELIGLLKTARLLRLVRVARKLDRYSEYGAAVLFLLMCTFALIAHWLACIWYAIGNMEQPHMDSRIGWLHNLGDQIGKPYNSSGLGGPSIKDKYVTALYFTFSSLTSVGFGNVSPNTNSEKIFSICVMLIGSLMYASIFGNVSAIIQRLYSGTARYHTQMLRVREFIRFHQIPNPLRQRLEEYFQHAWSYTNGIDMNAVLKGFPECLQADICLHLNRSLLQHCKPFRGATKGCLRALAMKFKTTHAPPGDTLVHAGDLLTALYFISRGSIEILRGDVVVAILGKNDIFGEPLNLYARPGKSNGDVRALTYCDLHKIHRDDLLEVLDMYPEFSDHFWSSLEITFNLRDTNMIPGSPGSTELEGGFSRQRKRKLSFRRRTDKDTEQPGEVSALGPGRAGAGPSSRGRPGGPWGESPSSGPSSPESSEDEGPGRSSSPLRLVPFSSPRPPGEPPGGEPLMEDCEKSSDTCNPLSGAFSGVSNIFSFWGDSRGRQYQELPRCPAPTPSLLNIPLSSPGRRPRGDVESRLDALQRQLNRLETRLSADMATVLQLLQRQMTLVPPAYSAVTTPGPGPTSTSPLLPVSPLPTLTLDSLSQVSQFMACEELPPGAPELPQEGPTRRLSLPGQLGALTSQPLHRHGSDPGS
Dopamine, D1 (Homo sapiens, UniProt P21728), sequence (P21728 whole entry): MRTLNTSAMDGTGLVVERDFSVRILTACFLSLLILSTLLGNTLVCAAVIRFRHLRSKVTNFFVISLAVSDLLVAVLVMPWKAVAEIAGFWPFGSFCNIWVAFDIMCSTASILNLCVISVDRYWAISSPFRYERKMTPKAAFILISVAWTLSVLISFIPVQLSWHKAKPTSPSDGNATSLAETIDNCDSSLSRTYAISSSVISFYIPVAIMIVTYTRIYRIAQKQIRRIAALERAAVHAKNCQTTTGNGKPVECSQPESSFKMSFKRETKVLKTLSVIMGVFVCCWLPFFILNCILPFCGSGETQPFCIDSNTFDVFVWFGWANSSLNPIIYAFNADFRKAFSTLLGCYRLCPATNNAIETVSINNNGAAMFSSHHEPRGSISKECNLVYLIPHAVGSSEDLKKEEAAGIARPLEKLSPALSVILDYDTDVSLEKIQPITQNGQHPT
D2 receptors (Rattus norvegicus, UniProt P61169), sequence (P61169 whole entry): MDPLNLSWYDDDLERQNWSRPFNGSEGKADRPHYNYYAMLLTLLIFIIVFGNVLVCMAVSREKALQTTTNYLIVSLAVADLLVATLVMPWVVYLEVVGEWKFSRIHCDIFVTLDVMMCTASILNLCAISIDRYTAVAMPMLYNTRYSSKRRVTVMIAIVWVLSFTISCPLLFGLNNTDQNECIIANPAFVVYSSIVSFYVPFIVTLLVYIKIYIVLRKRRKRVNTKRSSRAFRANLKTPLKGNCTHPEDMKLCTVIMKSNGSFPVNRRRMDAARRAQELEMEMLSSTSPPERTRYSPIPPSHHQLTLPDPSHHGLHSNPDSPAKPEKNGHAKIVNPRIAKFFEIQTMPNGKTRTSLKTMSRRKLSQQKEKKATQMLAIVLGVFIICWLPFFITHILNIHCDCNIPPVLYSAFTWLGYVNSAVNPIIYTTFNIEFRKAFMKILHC
Dopamine, D1 (Rattus norvegicus, UniProt P18901), sequence (P18901 whole entry): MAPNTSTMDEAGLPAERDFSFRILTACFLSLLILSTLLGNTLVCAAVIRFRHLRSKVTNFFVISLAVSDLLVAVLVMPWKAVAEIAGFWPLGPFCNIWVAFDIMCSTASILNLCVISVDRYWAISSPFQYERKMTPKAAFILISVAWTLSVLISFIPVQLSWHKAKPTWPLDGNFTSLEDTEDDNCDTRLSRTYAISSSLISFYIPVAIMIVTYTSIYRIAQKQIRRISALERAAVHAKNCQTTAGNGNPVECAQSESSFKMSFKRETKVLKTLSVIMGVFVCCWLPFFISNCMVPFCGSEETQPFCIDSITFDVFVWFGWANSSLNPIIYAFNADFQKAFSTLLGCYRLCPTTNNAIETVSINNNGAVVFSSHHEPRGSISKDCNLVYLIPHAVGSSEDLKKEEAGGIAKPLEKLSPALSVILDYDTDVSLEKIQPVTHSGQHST
H1 histamine receptor (Homo sapiens, UniProt P35367), sequence (P35367 whole entry): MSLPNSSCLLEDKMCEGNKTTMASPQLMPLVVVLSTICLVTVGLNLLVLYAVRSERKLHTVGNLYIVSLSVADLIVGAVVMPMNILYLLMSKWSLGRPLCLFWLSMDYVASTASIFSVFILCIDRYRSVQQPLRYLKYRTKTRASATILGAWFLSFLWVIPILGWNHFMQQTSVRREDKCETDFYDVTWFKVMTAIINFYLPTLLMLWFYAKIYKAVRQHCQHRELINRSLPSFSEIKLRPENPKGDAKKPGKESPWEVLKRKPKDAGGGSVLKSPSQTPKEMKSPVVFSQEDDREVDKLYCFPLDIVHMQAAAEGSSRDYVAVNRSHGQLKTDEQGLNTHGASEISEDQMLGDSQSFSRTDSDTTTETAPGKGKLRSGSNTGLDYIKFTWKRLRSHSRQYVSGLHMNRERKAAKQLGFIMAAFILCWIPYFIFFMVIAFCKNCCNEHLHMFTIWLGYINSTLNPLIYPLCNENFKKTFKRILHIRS
H1 histamine receptor (Rattus norvegicus, UniProt P31390), sequence (P31390 whole entry): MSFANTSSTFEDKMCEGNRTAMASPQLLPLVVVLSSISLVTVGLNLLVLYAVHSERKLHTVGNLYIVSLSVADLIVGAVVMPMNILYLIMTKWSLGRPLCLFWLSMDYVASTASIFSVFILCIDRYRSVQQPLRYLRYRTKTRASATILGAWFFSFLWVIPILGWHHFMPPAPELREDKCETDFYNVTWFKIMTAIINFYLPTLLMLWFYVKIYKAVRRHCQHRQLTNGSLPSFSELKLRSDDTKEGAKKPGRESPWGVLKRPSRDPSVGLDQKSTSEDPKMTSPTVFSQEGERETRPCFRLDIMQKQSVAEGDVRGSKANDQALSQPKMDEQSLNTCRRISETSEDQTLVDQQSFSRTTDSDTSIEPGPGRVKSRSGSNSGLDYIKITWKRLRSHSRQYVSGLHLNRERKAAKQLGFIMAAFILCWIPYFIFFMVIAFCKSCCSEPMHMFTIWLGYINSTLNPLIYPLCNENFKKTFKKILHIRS

Consider `CC(C)(CN1CCN(C2=Nc3ccccc3Oc3ccccc32)CC1)C(=O)NS(C)(=O)=O` [Compound 40], for which the NREM with male Wistar rats (dose 30 mg/kg) was 43 ± 4 min. In addition, the “hERG at 10 micromolar (% blocking of the hERG channel)” value on hERG channel came to 5.6%. For the same compound, the inhibitory constant (Ki) is 0.0228 µM at H1 histamine receptor [1]; 0.0588 µM at H1 histamine receptor [2]; 0.0317 µM at H1 histamine receptor [3]; over 10 µM at M1 muscarinic receptor [4]; over 10 µM at M2 muscarinic receptor; over 10 µM at M3 muscarinic receptor. For the same compound, the Ki was over 10 µM at alpha 1 receptors; over 10 µM on alpha 2 receptors; over 10 µM on Dopamine, D1 [5]; over 10 µM on Dopamine, D1 [6]; 1.87 µM on D2 receptors [7]; over 10 µM on D2 receptors [8].
In the case of `CC(C)(CN1CCN(C2=Nc3ccccc3Oc3ccccc32)CC1)C(=O)O` [Compound 1], the NREM with male Wistar rats (dose 3 mg/kg) was 39 ± 6 min. Also, the “hERG at 10 micromolar (% blocking of the hERG channel)” value on hERG channel was 6.2%. For the same compound, the Ki on H1 histamine receptor [1] was 0.0403 µM; on H1 histamine receptor [2], 0.0115 µM; at H1 histamine receptor [3] it was 0.0237 µM; on M1 muscarinic receptor [4] it was over 10 µM; at M2 muscarinic receptor it was over 10 µM; at M3 muscarinic receptor, over 10 µM. For the same compound, the inhibitory constant (Ki) at alpha 1 receptors was over 10 µM; on alpha 2 receptors, over 10 µM; on Dopamine, D1 [5] it was over 10 µM; on Dopamine, D1 [6] it was over 10 µM; on D2 receptors [7] it was over 10 µM; at D2 receptors [8] it was over 10 µM.
For the compound `C[N+]1(C)CCC(OC(=O)C(c2ccccc2)c2ccccc2)CC1` [4-DAMP methiodide], the Ki at M1 muscarinic receptor [9] is 0.00027 µM.
With `CC(C)(CN1CCN(C2=Nc3ccccc3Oc3ccc(F)cc32)CC1)C(=O)O` [Compound 4], at hERG channel, the “hERG at 10 micromolar (% blocking of the hERG channel)” value was 8%. The inhibition constant Ki is over 10 µM at M1 muscarinic receptor [4]; over 10 µM at M3 muscarinic receptor; over 10 µM at alpha 1 receptors; over 10 µM at alpha 2 receptors; over 10 µM at Dopamine, D1 [5]; over 10 µM at D2 receptors [7]. For the same compound, the inhibition constant (Ki) on D2 receptors [8] came to 2.73 µM.
